The source of these data is patent US20110245283A1, “Methods for predicting the response to statins” (priority 2009, published 2011).

Experiment [1] concerns LDL. The note with it: cited from earlier work.
The test system of experiment [2] is LDL. The experiment is described as follows: Logistic regression models of attaining LDL goal: odds ratios for concurrent or prior drug doses. It is filed as in vivo, patients. The note with it: for OR: odds of goal. The method, then: G. Covariates for the multivariate model—The following list includes the predictors one or more of which may be tested in the multivariate models. • 1. AGE: (expressed in units of 10 years) at time that the new statin prescription was released • 2. GENDER, E. G., MALE: 1=yes, 0=no • 3. BMI (kg/M^2): last value before release date • 4. HBA1C (hemoglobin Alc): last value before release date • 5. PLDL: preceding LDL level expressed in e.g. 10 mg/dl units • 6. Statins • a. PLOVA: prior daily dose of lovastatin expressed in e.g. 10 mg units • b. […] For additional drugs: • a. AMIODOSE: amiodarone dose in mg/day • b. CARBDOSE: carbemazepine dose in mg/day • c. PIOGDOSE: pioglitazone dose expressed as number of 15 mg doses per day • d. […] METFDOSE: metformin dose expressed as number of 1000 mg doses per day • f. PHENDOSE: phenyloin dose in mg/day • g. RISPDOSE: risperidone dose in mg/day • h. ROSIDOSE: rosiglitazone dose in mg/day • i.
Body mass index (BMI) was chosen as a covariate of statin response because obese patients tend to consume a diet high in cholesterol. It was hypothesized that they would respond less well to statins because their hypercholesterolemia was more likely to be mediated by dietary indiscretion than excessive LDL synthesis. […] Metformin and the thiazolidinediones were chosen because they reduce LDL levels in diabetic patients through mechanisms that may or may not be affected by concurrent statin treatment. The remaining non-statin drugs were chosen because they are commonly used drugs that potentiate the effect of statins. They were selected by reviewing the official on-line VA pharmaceutical reference (Micromedex®) for major interactions mediated by impaired statin metabolism. […] The daily dose of the non-statin drug was calculated by the method described in Section B.
H. Assembling the predictor file—The patient identifier was used to link the new statin prescription type and dose, the preceding LDL above goal, and the type and dose of the previous statin (if any) with the patient's most recent HbA1c, most recent BMI, and the daily doses of 9 drugs with major statin interactions that were active at the time the new prescription was released.
The dependent variable was attainment of goal (LDL <100 mg/dl). […] Step selections were based upon the maximal likelihood method with α<0.15 to enter and ≧0.15 to remove.

Experiment [3] concerns LDL. In words: Proportion of CAD patients attaining LDL goal (<100 mg/dl) on a statin dose; validation sets stratified by predicted probability. The note with it: for Proportion of patients achieving goal: validation set; for Chance of success (reaching goal) of any dose choice: this study.

Molecules are shown by their SMILES. Read-outs that look alike come from different tables or passages of the source.

For the compound `CC(C)c1c(C(=O)Nc2ccccc2)c(-c2ccccc2)c(-c2ccc(F)cc2)n1CC[C@@H](O)C[C@@H](O)CC(=O)O` [Atorva, atorvastatin], the “Average LDL reduction” value is listed as 36% with LDL [1] (Dose 10 mg), 46% in the experiment on LDL [1] (Dose 20 mg), 51% in the experiment on LDL [1] (Dose 40 mg) and 54% in the experiment on LDL [1] (Dose 80 mg).

Take `CC(C)n1c(/C=C/C(O)CC(O)CC(=O)O)c(-c2ccc(F)cc2)c2ccccc21` (stereo not shown) [Fluva, fluvastatin]: the figures for the “Average LDL reduction” value in the experiment on LDL [1] (Dose 20 mg), in the experiment on LDL [1] (Dose 40 mg) and in the experiment on LDL [1] (Dose 80 mg) were 17%, 23% and 33%, respectively.

Turning to `CC[C@H](C)C(=O)O[C@H]1C[C@H](O)C=C2C=C[C@H](C)[C@H](CC[C@@H](O)C[C@@H](O)CC(=O)O)[C@H]21` [Prava, pravastatin], the “Average LDL reduction” value is recorded as 19% with LDL [1] (Dose 10 mg), 24% in the experiment with LDL [1] (Dose 20 mg), 34% with LDL [1] (Dose 40 mg) and 40% in the experiment on LDL [1] (Dose 80 mg).

Regarding `CC(C)c1nc(N(C)S(C)(=O)=O)nc(-c2ccc(F)cc2)c1/C=C/[C@@H](O)C[C@@H](O)CC(=O)O` [Rosuva, rosuvastatin], the “Average LDL reduction” value is 43% in the experiment with LDL [1] (Dose 5 mg), 50% in the experiment with LDL [1] (Dose 10 mg), 53% with LDL [1] (Dose 20 mg) and 62% in the experiment with LDL [1] (Dose 40 mg).

For `CCC(C)(C)C(=O)O[C@H]1C[C@@H](C)C=C2C=C[C@H](C)[C@H](CC[C@@H]3C[C@@H](O)CC(=O)O3)[C@H]21` [Simvastatin, simvastatin], the “Reduction of odds of reaching goal” value in the experiment with LDL [2] (for every 10 mg/day in the previous simvastatin dose, simvastatin 20 model) worked out at 70%. Also, the OR worked out at 0.130 with LDL [2] (Model 1, Simvastatin 10 mg, per 10 mg/day); 0.355 in the experiment on LDL [2] (Model 1, Simvastatin 20 mg, per 10 mg/day); 0.771 in the experiment with LDL [2] (Model 1, Simvastatin 40 mg, per 10 mg/day); 0.900 in the experiment on LDL [2] (Model 1, Simvastatin 80 mg, per 10 mg/day); 0.0593 in the experiment with LDL [2] (Simvastatin 10 mg [B] model (includes BMI; n = 136), per dose increment); 0.149 with LDL [2] (Simvastatin 10 mg [C] model (excludes BMI; n = 219), per dose increment). Besides, the OR in the experiment with LDL [2] (Simvastatin 20 mg model (n = 374), per dose increment) is recorded as 0.356; with LDL [2] (Simvastatin 40 mg model (n = 698), per dose increment), 0.788; with LDL [2] (Simvastatin 80 mg model (n = 481), per dose increment), 0.887. Also, the “Proportion of patients achieving goal” value in the experiment with LDL [3] (Model 1, simvastatin 10 mg, predicted probability 0-19%) is reported as 14.3%; with LDL [3] (Model 1, simvastatin 10 mg, predicted probability 20-39%), 31.8%; with LDL [3] (Model 1, simvastatin 10 mg, predicted probability 40-59%), 57.6%; with LDL [3] (Model 1, simvastatin 10 mg, predicted probability 60-79%), 69.7%; in the experiment with LDL [3] (Model 1, simvastatin 10 mg, predicted probability 80-100%), 100%; in the experiment on LDL [3] (Model 1, simvastatin 20 mg, predicted probability 0-19%) it was 11.1%. Also, the “Proportion of patients achieving goal” value in the experiment on LDL [3] (Model 1, simvastatin 20 mg, predicted probability 20-39%) is on record as 32.9%; with LDL [3] (Model 1, simvastatin 20 mg, predicted probability 60-79%), 66.2%; in the experiment on LDL [3] (Model 1, simvastatin 40 mg, Overall), 57.0%; in the experiment on LDL [3] (Model 1, simvastatin 40 mg, predicted probability 0-19%), 36.4%; in the experiment with LDL [3] (Model 1, simvastatin 40 mg, predicted probability 20-39%), 30.4%; in the experiment with LDL [3] (Model 1, simvastatin 40 mg, predicted probability 40-59%), 54.2%. The “Proportion of patients achieving goal” value in the experiment with LDL [3] (Model 1, simvastatin 40 mg, predicted probability 60-79%) is listed as 67.2%; in the experiment with LDL [3] (Model 1, simvastatin 40 mg, predicted probability 80-100%), 0%; with LDL [3] (Model 1, simvastatin 80 mg, Overall) it was 61.9%; in the experiment with LDL [3] (Model 1, simvastatin 80 mg, predicted probability 20-39%), 42.7%; in the experiment with LDL [3] (Model 1, simvastatin 80 mg, predicted probability 40-59%) it was 42.7%; with LDL [3] (Model 1, simvastatin 80 mg, predicted probability 60-79%), 68.9%. For the same compound, the “Proportion of patients achieving goal” value is on record as 74.3% with LDL [3] (Model 1, simvastatin 80 mg, predicted probability 80-100%); 8.3% with LDL [3] (Simvastatin 10 mg [A] model, predicted probability 0-19%); 29.7% in the experiment with LDL [3] (Simvastatin 10 mg [A] model, predicted probability 20-39%); 62.1% in the experiment with LDL [3] (Simvastatin 10 mg [A] model, predicted probability 40-59%); 68.6% in the experiment with LDL [3] (Simvastatin 10 mg [A] model, predicted probability 60-79%); 75.0% in the experiment on LDL [3] (Simvastatin 10 mg [A] model, predicted probability 80-100%). The “Proportion of patients achieving goal” value in the experiment with LDL [3] (Simvastatin 10 mg [B] model, Overall) is listed as 52.1%; with LDL [3] (Simvastatin 10 mg [B] model, predicted probability 0-19%) it was 10.0%; in the experiment with LDL [3] (Simvastatin 10 mg [B] model, predicted probability 20-39%) it was 26.3%; in the experiment with LDL [3] (Simvastatin 10 mg [B] model, predicted probability 40-59%), 58.8%; in the experiment on LDL [3] (Simvastatin 10 mg [B] model, predicted probability 60-79%), 70.6%; with LDL [3] (Simvastatin 10 mg [B] model, predicted probability 80-100%), 100%. Besides, the “Proportion of patients achieving goal” value is given as 11.8% in the experiment on LDL [3] (Simvastatin 10 mg [C] model, predicted probability 0-19%); 31.8% with LDL [3] (Simvastatin 10 mg [C] model, predicted probability 20-39%); 60.0% in the experiment on LDL [3] (Simvastatin 10 mg [C] model, predicted probability 40-59%); 74.2% in the experiment with LDL [3] (Simvastatin 10 mg [C] model, predicted probability 60-79%); 75.0% in the experiment on LDL [3] (Simvastatin 10 mg [C] model, predicted probability 80-100%); 10.5% with LDL [3] (Simvastatin 20 mg [C] model, predicted probability 0-19%). Further, the “Proportion of patients achieving goal” value in the experiment with LDL [3] (Simvastatin 20 mg [C] model, predicted probability 20-39%) is reported as 35.1%; in the experiment with LDL [3] (Simvastatin 20 mg [C] model, predicted probability 60-79%), 65.3%; with LDL [3] (Simvastatin 40 mg model, Overall), 57.4%; in the experiment on LDL [3] (Simvastatin 40 mg model, predicted probability 0-19%) it was 20.0%; in the experiment with LDL [3] (Simvastatin 40 mg model, predicted probability 20-39%) it was 38.6%; with LDL [3] (Simvastatin 40 mg model, predicted probability 40-59%), 54.6%. In addition, the “Proportion of patients achieving goal” value is recorded as 67.0% in the experiment with LDL [3] (Simvastatin 40 mg model, predicted probability 60-79%); 65.0% in the experiment with LDL [3] (Simvastatin 40 mg model, predicted probability 80-100%); 61.9% in the experiment on LDL [3] (Simvastatin 80 mg model, Overall); 41.7% in the experiment on LDL [3] (Simvastatin 80 mg model, predicted probability 20-39%); 41.9% with LDL [3] (Simvastatin 80 mg model, predicted probability 40-59%); 72.8% in the experiment on LDL [3] (Simvastatin 80 mg model, predicted probability 60-79%). The “Proportion of patients achieving goal” value in the experiment with LDL [3] (Simvastatin 80 mg model, predicted probability 80-100%) is on record as 70.8%. The “Chance of success (reaching goal) of any dose choice” value with LDL [3] (all choices except 80 mg daily) was at most 60%; with LDL [3] (all doses), at most 62%.
